According to ChEMBL document CHEMBL5036341, “Design, synthesis and biological evaluation of aminopyrimidine derivatives bearing a 4,5,6,7-tetrahydrothieno [3,2-c]pyridine as potent EGFR inhibitors” (Eur J Med Chem, 2021):
Activity calls are given as the source filed them. The rule behind the calls is not given here.

Assays:
Homo sapiens [1] = organism: Homo sapiens; assay: Inhibition of EGFR L858R/T790M double mutant (unknown origin) measured at 0.1 uM by ELISA
Homo sapiens [2] = organism: Homo sapiens; assay: Inhibition of EGFR L858R/T790M double mutant (unknown origin) measured at 1 uM by ELISA
NCI-H1975 [3] = assay: Cytotoxicity against human NCI-H1975 cells assessed as reduction in cell viability measured by MTT assay; assay type: functional, cell-based
[4] = Inhibition of EGFR L858R/T790M double mutant (unknown origin) measured by ELISA; design: species or system Homo sapiens
[5] = Inhibition of EGFR L858R/T790M/C797S triple mutant (unknown origin) measured by ELISA; design: species or system Homo sapiens
A549 [6] = assay: Cytotoxicity against human A549 cells assessed as reduction in cell viability measured by MTT assay; assay type: functional, cell-based
A-431 = assay: Cytotoxicity against human A-431 cells assessed as reduction in cell viability measured by MTT assay; assay type: functional, cell-based
[7] = molecular target: Epidermal growth factor receptor (Homo sapiens, UniProt P00533); assay: Inhibition of wild type EGFR (unknown origin) measured by ELISA
Homo sapiens [8] = organism: Homo sapiens; assay: Selectivity ratio of IC50 for EGFR L858R/T790M double mutant (unknown origin) to IC50 for wildtype EGFR (unknown origin) measured by ELISA
A549 [9] = assay: Inhibition of cell migration in human A549 cells measured after 12 to 36 hours by fluorescence microscopy based wound healing assay; assay type: functional; conditions: dose 1-5 µM, time 12-36 hrs
A549 [10] = assay: Antiproliferative activity against human A549 cells assessed as reduction in cell growth incubated for 24 hrs by AO/EB staining based inverted fluorescence microscopic analysis; assay type: functional; conditions: dose 1-25 µM
NCI-H1975 [11] = assay: Induction of apoptosis in human NCI-H1975 cells assessed as live cells at 0.2 uM measured after 48 hrs by annexinV-FITC and propidium iodide double staining based flow cytometry analysis (reference value: 94.92 %); assay type: functional
NCI-H1975 [12] = assay: Induction of apoptosis in human NCI-H1975 cells assessed as early apoptotic cells at 0.2 uM measured after 48 hrs by annexinV-FITC and propidium iodide double staining based flow cytometry analysis (reference value: 3.24 %); assay type: functional
NCI-H1975 [13] = assay: Induction of apoptosis in human NCI-H1975 cells assessed as late apoptotic cells at 0.2 uM measured after 48 hrs by annexinV-FITC and propidium iodide double staining based flow cytometry analysis (reference value: 1.56 %); assay type: functional
NCI-H1975 [14] = assay: Induction of apoptosis in human NCI-H1975 cells assessed as necrotic cells at 0.2 uM measured after 48 hrs by annexinV-FITC and propidium iodide double staining based flow cytometry analysis (reference value: 0.28 %); assay type: functional
NCI-H1975 [15] = assay: Induction of apoptosis in human NCI-H1975 cells assessed as live cells at 1 uM measured after 48 hrs by annexinV-FITC and propidium iodide double staining based flow cytometry analysis (reference value: 94.92 %); assay type: functional
NCI-H1975 [16] = assay: Induction of apoptosis in human NCI-H1975 cells assessed as early apoptotic cells at 1 uM measured after 48 hrs by annexinV-FITC and propidium iodide double staining based flow cytometry analysis (reference value: 3.24 %); assay type: functional
NCI-H1975 [17] = assay: Induction of apoptosis in human NCI-H1975 cells assessed as late apoptotic cells at 1 uM measured after 48 hrs by annexinV-FITC and propidium iodide double staining based flow cytometry analysis (reference value: 1.56 %); assay type: functional
NCI-H1975 [18] = assay: Induction of apoptosis in human NCI-H1975 cells assessed as necrotic cells at 1 uM measured after 48 hrs by annexinV-FITC and propidium iodide double staining based flow cytometry analysis (reference value: 0.28 %); assay type: functional
NCI-H1975 [19] = assay: Induction of apoptosis in human NCI-H1975 cells assessed as live cells at 5 uM measured after 48 hrs by annexinV-FITC and propidium iodide double staining based flow cytometry analysis (reference value: 94.92 %); assay type: functional
NCI-H1975 [20] = assay: Induction of apoptosis in human NCI-H1975 cells assessed as early apoptotic cells at 5 uM measured after 48 hrs by annexinV-FITC and propidium iodide double staining based flow cytometry analysis (reference value: 3.24 %); assay type: functional
NCI-H1975 [21] = assay: Induction of apoptosis in human NCI-H1975 cells assessed as late apoptotic cells at 5 uM measured after 48 hrs by annexinV-FITC and propidium iodide double staining based flow cytometry analysis (reference value: 1.56 %); assay type: functional
NCI-H1975 [22] = assay: Induction of apoptosis in human NCI-H1975 cells assessed as necrotic cells at 5 uM measured after 48 hrs by annexinV-FITC and propidium iodide double staining based flow cytometry analysis (reference value: 0.28 %); assay type: functional
A549 [23] = assay: Induction of apoptosis in human A549 cells assessed as chromatin contraction at 25 uM measured after 24 hrs by AO/EB staining based inverted fluorescence microscopic analysis; assay type: functional, cell-based

Sequence of Epidermal growth factor receptor (P00533 whole entry): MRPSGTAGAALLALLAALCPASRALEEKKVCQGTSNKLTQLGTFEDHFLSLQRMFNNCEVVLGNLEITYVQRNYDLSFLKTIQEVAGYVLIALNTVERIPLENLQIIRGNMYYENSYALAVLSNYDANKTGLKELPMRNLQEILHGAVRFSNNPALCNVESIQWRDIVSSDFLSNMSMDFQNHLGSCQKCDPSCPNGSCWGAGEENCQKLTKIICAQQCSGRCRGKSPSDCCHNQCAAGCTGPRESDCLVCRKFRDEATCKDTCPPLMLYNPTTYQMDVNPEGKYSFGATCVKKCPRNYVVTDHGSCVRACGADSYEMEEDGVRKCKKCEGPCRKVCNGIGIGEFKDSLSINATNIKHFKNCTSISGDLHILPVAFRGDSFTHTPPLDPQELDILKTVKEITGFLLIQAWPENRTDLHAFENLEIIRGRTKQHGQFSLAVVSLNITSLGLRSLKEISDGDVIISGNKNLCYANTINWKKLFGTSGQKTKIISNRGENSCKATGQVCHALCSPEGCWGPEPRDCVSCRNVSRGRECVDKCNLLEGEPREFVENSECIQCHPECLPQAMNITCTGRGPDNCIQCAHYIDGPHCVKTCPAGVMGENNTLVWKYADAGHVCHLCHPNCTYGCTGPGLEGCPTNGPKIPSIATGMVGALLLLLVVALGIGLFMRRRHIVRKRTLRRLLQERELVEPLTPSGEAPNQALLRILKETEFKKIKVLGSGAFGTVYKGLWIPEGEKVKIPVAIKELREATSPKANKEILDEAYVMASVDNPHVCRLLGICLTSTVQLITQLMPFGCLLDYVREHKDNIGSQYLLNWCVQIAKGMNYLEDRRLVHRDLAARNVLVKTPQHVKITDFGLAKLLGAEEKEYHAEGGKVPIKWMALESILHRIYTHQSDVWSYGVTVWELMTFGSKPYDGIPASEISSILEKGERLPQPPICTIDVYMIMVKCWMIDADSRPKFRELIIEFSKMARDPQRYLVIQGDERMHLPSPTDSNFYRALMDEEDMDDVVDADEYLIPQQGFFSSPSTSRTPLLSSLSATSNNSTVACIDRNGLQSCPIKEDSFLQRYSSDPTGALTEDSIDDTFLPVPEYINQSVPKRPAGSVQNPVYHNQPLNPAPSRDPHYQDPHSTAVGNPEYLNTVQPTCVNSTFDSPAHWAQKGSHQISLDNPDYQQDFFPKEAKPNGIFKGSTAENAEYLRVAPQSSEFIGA

C=CC(=O)Nc1cc(Nc2nccc(-c3cn(C)c4ccccc34)n2)c(OC)cc1N(C)CCN(C)C [OSIMERTINIB]
inhibition (Homo sapiens [1]): 97.3%
inhibition (Homo sapiens [2]): 99.5%
IC50 [4]: 3.4 nM
IC50 [5]: 129 nM

C=CC(=O)Nc1cc(Nc2nccc(N3CCc4sccc4C3)n2)c(OC)cc1N(CC)CC
inhibition (Homo sapiens [1]): 13.5%
inhibition (Homo sapiens [2]): 42.6%

C=CC(=O)Nc1cc(Nc2nccc(N3CCc4sccc4C3)n2)c(OC)cc1N1CCN(CC)CC1
inhibition (Homo sapiens [1]): 5.4%
inhibition (Homo sapiens [2]): 15.8%

COc1cc(NC(=O)CN2CCN(C)CC2)ccc1Nc1nccc(N2CCc3sccc3C2)n1
inhibition (Homo sapiens [1]): 16.3%
inhibition (Homo sapiens [2]): 58.3%

COc1cc(N(C)CCN(C)C)c(NC(=O)/C=C/C(C)C)cc1Nc1ncc(Cl)c(N2CCc3sccc3C2)n1
IC50 (A549 [6]): 4590 nM
IC50 (A-431): 21300 nM
IC50 (NCI-H1975 [3]): 472 nM

COc1cc(NC(=O)CN2CCOCC2)ccc1Nc1nccc(N2CCc3sccc3C2)n1
inhibition (Homo sapiens [1]): 3.2%
inhibition (Homo sapiens [2]): 13.9%

C=CC(=O)Nc1cc(Nc2ncc(Cl)c(N3CCc4sccc4C3)n2)c(OC)cc1N(C)CCN(C)C
inhibition (Homo sapiens [1]): 85%
inhibition (Homo sapiens [2]): 97%
IC50 (A549 [6]): 166 nM
IC50 (A-431): 5490 nM
IC50 (NCI-H1975 [3]): 242 nM
IC50 [4]: 3.9 nM
IC50 [7]: 6.4 nM
Ratio IC50 (Homo sapiens [8]): 7

CCN(CC)C/C=C/C(=O)Nc1ccc(OC)c(Nc2nccc(N3CCc4sccc4C3)n2)c1
inhibition (Homo sapiens [1]): 36.8%
inhibition (Homo sapiens [2]): 77.5%

CCN1CCN(CC(=O)Nc2ccc(Nc3nccc(N4CCc5sccc5C4)n3)c(OC)c2)CC1
inhibition (Homo sapiens [1]): 9.9%
inhibition (Homo sapiens [2]): 36.6%

COc1cc(N(C)CCN(C)C)c(NC(=O)C=C(C)C)cc1Nc1ncc(Cl)c(N2CCc3sccc3C2)n1
IC50 (A549 [6]): 5100 nM
IC50 (A-431): > 50000 nM
IC50 (NCI-H1975 [3]): 280 nM
IC50 [4]: 16.3 nM

CCN(CC)CC(=O)Nc1ccc(Nc2nccc(N3CCc4sccc4C3)n2)c(OC)c1
inhibition (Homo sapiens [1]): 3.6%
inhibition (Homo sapiens [2]): 20.3%

COc1cc(NC(=O)CN2CCC(C)CC2)ccc1Nc1nccc(N2CCc3sccc3C2)n1
inhibition (Homo sapiens [1]): 4.5%
inhibition (Homo sapiens [2]): 26.1%

COc1ccc(NC(=O)/C=C/CN(C)C)cc1Nc1nccc(N2CCc3sccc3C2)n1
inhibition (Homo sapiens [1]): 42.2%
inhibition (Homo sapiens [2]): 80.1%

CCC(=O)Nc1cc(Nc2ncc(Cl)c(N3CCc4sccc4C3)n2)c(OC)cc1N(C)CCN(C)C
inhibition (A549 [9]): Dose-Dependent Effect
inhibition (Homo sapiens [1]): 97.9%
inhibition (Homo sapiens [2]): 99.2%
IC50 (A549 [6]): 460 nM
IC50 (A-431): 2190 nM
IC50 (NCI-H1975 [3]): 86 nM
IC50 [4]: 4 nM
IC50 [7]: 170 nM
IC50 [5]: 360 nM
Activity (A549 [10]): Dose-Dependent Effect
Activity (NCI-H1975 [11]): 90.82%
Activity (NCI-H1975 [12]): 5.23%
Activity (NCI-H1975 [13]): 3.44%
Activity (NCI-H1975 [14]): 0.51%
Activity (NCI-H1975 [15]): 86.69%
Activity (NCI-H1975 [16]): 7.49%
Activity (NCI-H1975 [17]): 4.98%
Activity (NCI-H1975 [18]): 0.84%
Activity (NCI-H1975 [19]): 71.42%
Activity (NCI-H1975 [20]): 15.91%
Activity (NCI-H1975 [21]): 11.42%
Activity (NCI-H1975 [22]): 1.25%
Activity (A549 [23]): Active
Ratio IC50 (Homo sapiens [8]): 42.5
